This note sets out measurements from publication PMC9785925, “Solubility and Thermal Stability of Thermotoga maritima MreB” (International Journal of Molecular Sciences, 2022).

As a reminder, the Kd is the constant that tells how readily two partners part at equilibrium. High values mean lower affinity, low ones higher affinity.

The structures appear in SMILES notation. A value given as a limit tells only on which side of the number the result lay.

Common to all, as to format: binding
For assay [1], the target named is T1, Tm-MreB (Thermotoga maritima, UniProt Q9WZ57).
T1 construct: recombinant in E. coli ArcticExpress (DE3), Ni-NTA purified, His-tag removed with PreScission protease; native purification
T1 sequence (Q9WZ57 1-336): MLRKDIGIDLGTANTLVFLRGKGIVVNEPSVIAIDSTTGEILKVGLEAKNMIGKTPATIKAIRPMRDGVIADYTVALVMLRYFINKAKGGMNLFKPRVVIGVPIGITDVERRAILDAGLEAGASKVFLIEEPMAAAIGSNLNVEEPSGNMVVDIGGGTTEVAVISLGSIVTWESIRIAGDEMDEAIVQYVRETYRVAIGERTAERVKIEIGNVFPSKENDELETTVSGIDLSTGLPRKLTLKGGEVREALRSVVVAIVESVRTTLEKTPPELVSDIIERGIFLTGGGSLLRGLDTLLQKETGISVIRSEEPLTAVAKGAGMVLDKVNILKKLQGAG
Put plainly: competition with TNP-ATP fluorescence, Langmuir single-site fit. Conditions: salt-free (4 mM TRIS-HCl, 0.1 mM CaCl2, pH 7.5), 20 µM protein, 1 µM TNP-ATP; competitive; unreliable (text and figure legend disagree). The source says:
competition with TNP-ATP fluorescence, Langmuir single-site fit on Tm-MreB | we were able to determine the affinity of ATP for Tm-MreB

The target of assay [2] is T1, Tm-MreB. Put plainly: thermal denaturation, tryptophan fluorescence. Conditions: 2 mM ATP, salt-free (4 mM TRIS-HCl, 0.1 mM CaCl2, pH 7.5); printed as 90 °C≤. From the text: thermal denaturation, tryptophan fluorescence on Tm-MreB
Assay [3] addresses T1, Tm-MreB. Put plainly: TNP-ATP fluorescence titration, Hill fit.

With `Nc1ncnc2c1ncn2[C@@H]1O[C@H](COP(=O)(O)OP(=O)(O)OP(=O)(O)O)[C@@H](O)[C@H]1O` [ATP], the affinity on Tm-MreB [1] is on record as ~ 2 µM. Also, the “This Work (Tryptophan Signal)” value on Tm-MreB [2] was over 90 °C.

For the compound `Nc1ncnc2c1ncn2[C@@H]1O[C@H](COP(=O)(O)OP(=O)(O)OP(=O)(O)O)[C@H]2OC3(O[C@H]21)C([N+](=O)[O-])=CC(=[N+]([O-])[O-])C=C3[N+](=O)[O-]` (stereo partly drawn) [TNP-ATP], on Tm-MreB [3], binding was put at a Kd of 3.69 ± 0.04 µM.
